Measurements taken from ChEMBL document CHEMBL4043168, “The design and SAR of a novel series of 2-aminopyridine based LRRK2 inhibitors” (Bioorg Med Chem Lett, 2017).

Experiments:
[1] = biological target: Mitogen-activated protein kinase 9 (Homo sapiens) (UniProt P45984); assay: Inhibition of JNK2 conserved Lys2 (DLKPSNIVVK) in human PBMC at 1 uM
[2] = biological target: T1, Mitogen-activated protein kinase kinase kinase 5 (Homo sapiens) (UniProt Q99683); assay: Inhibition of MAP3K5 conserved Lys1 (IAIKEIPER) in human PBMC at 1 uM
T1 sequence (whole entry): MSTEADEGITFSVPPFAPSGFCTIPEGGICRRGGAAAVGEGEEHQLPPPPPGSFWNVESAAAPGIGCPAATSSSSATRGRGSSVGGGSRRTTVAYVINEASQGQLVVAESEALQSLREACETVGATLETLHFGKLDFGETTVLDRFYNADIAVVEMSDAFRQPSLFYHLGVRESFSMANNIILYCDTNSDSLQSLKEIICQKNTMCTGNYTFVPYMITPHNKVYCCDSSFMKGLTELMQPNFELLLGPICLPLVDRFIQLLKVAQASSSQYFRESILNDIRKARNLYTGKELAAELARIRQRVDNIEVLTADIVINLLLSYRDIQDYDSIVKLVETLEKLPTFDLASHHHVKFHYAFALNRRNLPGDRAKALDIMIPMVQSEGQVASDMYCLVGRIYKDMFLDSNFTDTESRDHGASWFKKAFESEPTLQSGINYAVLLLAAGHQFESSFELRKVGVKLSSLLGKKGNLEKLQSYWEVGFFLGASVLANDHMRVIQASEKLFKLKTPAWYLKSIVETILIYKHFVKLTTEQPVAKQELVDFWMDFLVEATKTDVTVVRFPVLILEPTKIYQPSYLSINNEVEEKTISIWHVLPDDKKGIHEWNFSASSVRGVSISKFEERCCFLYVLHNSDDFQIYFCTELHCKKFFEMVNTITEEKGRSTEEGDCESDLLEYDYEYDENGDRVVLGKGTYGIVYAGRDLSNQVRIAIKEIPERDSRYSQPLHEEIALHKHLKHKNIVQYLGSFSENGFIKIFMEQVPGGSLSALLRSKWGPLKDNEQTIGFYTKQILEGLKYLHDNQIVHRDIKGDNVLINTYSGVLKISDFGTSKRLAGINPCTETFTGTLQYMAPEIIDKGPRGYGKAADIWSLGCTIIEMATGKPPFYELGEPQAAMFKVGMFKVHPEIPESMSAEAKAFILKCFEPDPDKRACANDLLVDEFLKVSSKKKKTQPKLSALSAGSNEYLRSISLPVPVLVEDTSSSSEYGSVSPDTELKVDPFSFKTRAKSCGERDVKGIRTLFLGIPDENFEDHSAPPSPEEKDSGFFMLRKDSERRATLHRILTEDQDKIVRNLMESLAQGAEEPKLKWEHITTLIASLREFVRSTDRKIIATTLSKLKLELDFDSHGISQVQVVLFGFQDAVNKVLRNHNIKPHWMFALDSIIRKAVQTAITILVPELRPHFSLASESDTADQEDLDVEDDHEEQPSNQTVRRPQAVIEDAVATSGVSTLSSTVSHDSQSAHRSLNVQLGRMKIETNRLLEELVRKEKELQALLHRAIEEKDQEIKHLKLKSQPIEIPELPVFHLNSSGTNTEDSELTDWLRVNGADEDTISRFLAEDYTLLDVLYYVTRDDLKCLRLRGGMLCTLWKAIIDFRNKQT

[3] = biological target: RAC-alpha serine/threonine-protein kinase (Homo sapiens) (UniProt P31749); assay: Inhibition of AKT1 labeling at ATP binding site (GTFGKVILVK) in human PBMC at 1 uM
Chain of RAC-alpha serine/threonine-protein kinase (Homo sapiens) (P31749 whole entry): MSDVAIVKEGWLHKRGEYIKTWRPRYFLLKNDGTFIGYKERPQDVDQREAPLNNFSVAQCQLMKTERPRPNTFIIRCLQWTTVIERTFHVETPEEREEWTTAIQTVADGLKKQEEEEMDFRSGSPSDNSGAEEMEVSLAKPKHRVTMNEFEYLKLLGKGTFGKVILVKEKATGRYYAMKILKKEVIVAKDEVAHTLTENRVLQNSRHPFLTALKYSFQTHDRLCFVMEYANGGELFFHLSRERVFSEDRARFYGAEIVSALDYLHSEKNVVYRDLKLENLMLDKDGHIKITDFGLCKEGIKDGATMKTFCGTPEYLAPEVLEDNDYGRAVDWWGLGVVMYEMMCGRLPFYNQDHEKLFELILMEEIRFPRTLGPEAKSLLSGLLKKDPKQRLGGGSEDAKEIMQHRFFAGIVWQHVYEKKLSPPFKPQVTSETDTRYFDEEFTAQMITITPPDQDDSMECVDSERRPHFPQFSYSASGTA

[4] = biological target: Kinase suppressor of Ras 2 (Homo sapiens) (UniProt Q6VAB6); assay: Inhibition of KSR2 activation Loop (SKNVFYDNGK) in human PBMC at 1 uM
Chain of Kinase suppressor of Ras 2 (Homo sapiens) (Q6VAB6 whole entry): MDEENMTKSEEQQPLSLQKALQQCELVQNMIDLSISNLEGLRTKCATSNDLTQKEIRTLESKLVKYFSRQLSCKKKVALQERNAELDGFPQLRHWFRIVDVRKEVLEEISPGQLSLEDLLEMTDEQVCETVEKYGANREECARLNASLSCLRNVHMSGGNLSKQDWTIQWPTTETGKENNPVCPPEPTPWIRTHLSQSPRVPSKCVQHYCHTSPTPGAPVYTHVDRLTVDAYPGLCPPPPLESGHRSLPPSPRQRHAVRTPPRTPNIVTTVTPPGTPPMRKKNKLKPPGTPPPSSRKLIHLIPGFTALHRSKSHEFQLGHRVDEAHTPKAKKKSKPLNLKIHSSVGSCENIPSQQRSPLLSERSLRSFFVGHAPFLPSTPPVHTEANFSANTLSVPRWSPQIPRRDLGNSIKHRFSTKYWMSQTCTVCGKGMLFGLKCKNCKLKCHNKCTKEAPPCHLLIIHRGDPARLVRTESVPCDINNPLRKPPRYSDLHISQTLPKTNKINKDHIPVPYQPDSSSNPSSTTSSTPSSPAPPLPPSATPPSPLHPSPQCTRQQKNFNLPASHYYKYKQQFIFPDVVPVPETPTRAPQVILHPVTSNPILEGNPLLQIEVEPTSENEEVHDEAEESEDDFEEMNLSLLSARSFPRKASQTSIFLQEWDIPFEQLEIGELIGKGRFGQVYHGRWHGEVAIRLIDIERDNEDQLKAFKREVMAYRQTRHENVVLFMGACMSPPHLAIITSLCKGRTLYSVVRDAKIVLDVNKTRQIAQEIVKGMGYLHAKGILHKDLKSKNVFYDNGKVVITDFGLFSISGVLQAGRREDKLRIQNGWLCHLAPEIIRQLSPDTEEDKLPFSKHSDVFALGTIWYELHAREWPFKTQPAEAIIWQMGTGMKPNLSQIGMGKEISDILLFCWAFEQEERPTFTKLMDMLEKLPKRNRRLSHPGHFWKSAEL

[5] = biological target: Diacylglycerol kinase alpha (Homo sapiens) (UniProt P23743); assay: Inhibition of DGKA labeling at activation Loop (IDPVPNTHPLLVFVNPKSGGK) in human PBMC at 1 uM
Chain of Diacylglycerol kinase alpha (Homo sapiens) (P23743 whole entry): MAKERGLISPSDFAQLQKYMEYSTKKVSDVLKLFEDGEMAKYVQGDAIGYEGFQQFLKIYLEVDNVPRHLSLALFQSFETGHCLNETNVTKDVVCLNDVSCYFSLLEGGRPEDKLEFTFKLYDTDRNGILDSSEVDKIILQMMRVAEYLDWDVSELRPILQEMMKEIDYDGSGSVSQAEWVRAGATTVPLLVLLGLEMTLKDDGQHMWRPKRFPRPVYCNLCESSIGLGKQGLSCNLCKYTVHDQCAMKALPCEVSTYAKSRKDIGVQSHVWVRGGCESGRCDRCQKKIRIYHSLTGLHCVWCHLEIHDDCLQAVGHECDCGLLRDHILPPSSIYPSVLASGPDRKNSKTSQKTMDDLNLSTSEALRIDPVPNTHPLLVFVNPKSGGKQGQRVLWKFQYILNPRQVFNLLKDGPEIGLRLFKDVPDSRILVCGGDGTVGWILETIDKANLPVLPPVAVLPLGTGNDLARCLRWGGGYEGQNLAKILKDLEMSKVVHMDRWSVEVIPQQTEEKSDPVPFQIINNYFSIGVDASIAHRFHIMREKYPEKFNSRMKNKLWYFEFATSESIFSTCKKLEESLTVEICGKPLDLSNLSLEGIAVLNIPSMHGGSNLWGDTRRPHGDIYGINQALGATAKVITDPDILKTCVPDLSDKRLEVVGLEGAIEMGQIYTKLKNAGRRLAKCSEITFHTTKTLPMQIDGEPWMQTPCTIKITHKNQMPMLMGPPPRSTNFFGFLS

[6] = biological target: T2, Mitogen-activated protein kinase kinase kinase 6 (Homo sapiens) (UniProt O95382); assay: Inhibition of MAP3K6 conserved Lys1 (IAIKEIPER) in human PBMC at 0.1 uM
T2 sequence (whole entry): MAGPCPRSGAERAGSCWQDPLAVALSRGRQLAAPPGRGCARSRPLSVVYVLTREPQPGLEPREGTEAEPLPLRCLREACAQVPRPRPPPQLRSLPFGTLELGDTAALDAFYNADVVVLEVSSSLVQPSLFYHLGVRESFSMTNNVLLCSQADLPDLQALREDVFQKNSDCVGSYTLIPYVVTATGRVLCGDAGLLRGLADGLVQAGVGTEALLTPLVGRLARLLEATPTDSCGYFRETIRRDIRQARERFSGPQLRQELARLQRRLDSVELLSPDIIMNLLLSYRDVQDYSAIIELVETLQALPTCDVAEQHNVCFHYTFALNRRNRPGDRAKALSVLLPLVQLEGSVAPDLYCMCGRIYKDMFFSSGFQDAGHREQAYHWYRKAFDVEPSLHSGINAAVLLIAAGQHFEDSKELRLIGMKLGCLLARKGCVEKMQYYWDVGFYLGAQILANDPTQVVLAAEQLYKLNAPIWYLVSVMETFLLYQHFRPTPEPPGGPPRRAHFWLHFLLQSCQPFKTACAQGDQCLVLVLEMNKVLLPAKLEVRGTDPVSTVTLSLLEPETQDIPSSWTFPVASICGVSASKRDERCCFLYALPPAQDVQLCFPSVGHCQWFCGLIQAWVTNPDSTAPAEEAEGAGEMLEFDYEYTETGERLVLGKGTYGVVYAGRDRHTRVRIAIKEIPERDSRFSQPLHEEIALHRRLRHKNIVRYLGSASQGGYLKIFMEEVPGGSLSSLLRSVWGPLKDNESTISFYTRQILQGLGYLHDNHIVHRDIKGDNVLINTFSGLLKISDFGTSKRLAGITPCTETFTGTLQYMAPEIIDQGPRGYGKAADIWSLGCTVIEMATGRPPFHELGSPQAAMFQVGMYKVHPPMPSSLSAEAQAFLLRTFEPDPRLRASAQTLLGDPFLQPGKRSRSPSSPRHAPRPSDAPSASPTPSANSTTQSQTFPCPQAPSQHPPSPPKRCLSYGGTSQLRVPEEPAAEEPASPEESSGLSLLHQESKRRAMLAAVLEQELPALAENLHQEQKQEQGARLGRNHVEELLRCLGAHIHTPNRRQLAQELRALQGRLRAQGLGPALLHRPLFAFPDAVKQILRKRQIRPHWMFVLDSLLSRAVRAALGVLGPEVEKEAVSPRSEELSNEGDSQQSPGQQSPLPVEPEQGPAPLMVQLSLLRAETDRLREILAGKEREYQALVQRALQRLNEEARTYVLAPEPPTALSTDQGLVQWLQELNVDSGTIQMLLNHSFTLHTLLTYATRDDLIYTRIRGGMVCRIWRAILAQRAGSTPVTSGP

[7] = biological target: Serine/threonine-protein kinase Nek7 (Homo sapiens) (UniProt Q8TDX7); assay: Inhibition of NEK7 conserved Lys2 (DIKPANVFITATGVVK) in human PBMC at 0.1 uM
Chain of Serine/threonine-protein kinase Nek7 (Homo sapiens) (Q8TDX7 whole entry, looked up): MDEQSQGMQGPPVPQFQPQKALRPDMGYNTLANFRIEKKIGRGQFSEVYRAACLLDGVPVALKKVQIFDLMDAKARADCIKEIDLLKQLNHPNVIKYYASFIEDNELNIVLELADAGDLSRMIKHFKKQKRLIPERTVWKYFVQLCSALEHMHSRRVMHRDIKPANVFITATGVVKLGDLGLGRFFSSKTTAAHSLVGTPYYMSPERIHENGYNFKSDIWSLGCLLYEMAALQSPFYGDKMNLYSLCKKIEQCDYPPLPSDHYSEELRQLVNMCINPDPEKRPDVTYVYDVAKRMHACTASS

Chain of Mitogen-activated protein kinase 9 (Homo sapiens) (P45984 whole entry, looked up): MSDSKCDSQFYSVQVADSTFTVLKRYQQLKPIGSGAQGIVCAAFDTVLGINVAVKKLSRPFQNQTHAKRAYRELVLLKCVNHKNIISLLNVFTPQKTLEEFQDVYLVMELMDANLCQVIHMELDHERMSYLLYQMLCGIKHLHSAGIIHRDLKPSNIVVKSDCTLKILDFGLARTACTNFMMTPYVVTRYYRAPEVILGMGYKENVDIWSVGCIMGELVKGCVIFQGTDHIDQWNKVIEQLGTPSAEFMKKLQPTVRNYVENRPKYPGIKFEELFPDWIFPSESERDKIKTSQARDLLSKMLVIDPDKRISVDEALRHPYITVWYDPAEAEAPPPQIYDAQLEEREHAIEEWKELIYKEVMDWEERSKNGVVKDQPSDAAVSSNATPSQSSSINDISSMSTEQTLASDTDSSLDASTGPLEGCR

## CC(C)n1cc(-c2cc(-c3ccc(CN4CCOCC4)cc3)cnc2N)nn1
[1]
  inhibition: 23.9%
[2]
  inhibition: -3.3%
[3]
  inhibition: 27.4%
[4]
  inhibition: 20.1%
[5]
  inhibition: -9.6%
[6]
  inhibition: -0.5%
[7]
  inhibition: -4.8%
